Patent US20120107323A1, “KINASE PROTEIN BINDING INHIBITORS” (University of Florida, priority 2009, published 2012)

What was measured:
A375 melanoma cells = assay: CFSE cell proliferation assay, A375; assay type: cell-based, human
Experimental: For staining with CFSE (Molecular Probes, Eugene, Oreg.)., 1×10^7/ml cells were suspended in PBS and incubated at 37° C. for 5 min with the 10 μM of CFSE. Stained cells were cultured with medium alone or with inhibitor for 24, 48, and 72 hours, fixed and analyzed by a FACS Calibur cytometer (Becton Dickinson, San Jose, Calif.).

A375 subcutaneous tumor = assay: A375 melanoma xenograft in nude mice; assay type: in vivo; details: A375, 15 mg/kg daily intraperitoneal, 21 days, p<0.05
Experimental: Kinase Profiler Screening: Kinase specificity screening was performed with Invitrogen's SelectScreen® Kinase Profiling Services http://www.invitrogen.com/site/us/en/home/Products-and-Services/Services/Discoverv-Research/SelectScreen-Profiling-Service/SelectScreen-Kinase-Profiling-Service.html. The screening was performed with 1 μM compound, INT2-31, 10 μM ATP, and kinase substrates against ten recombinant kinases according to Z′-LYTET™ Kinase Assay. For PI3 kinase activity, 100 μM ATP, and kinase substrate were utilized with the Invitrogen Adapta® Universal Kinase Assay protocol. Tumor Growth in Nude Mice in vivo: Six week old athymic, female nude mice were purchased from Harlan Laboratory. The mice were maintained in the animal facility, and all experiments were performed in compliance with NIH animal-use guidelines and under an IACUC approved protocol. […] Tumor diameters were measured with calipers, and tumor volume in mm^3 was calculated using the formula [(width)^2×length]/2. At the end of experiment, tumor weight and volume were determined.
For the melanoma study, the University of Florida IACUC approved the following protocol (IACUC Study #200801077). […] Tumor diameters were measured with calipers, and tumor volume in mm^3 was calculated using the formula [(width)^2×length]/2. At the end of experiment, tumor weight and volume were determined.

FAK and IGF-1R = biological target: T1, FAK and IGF-1R (Homo sapiens, UniProt Q05397); assay: Coimmunoprecipitation of FAK and IGF-1R in C8161 melanoma cells; assay type: cell-based; details: average IC50, C8161 cells, immunoprecipitation with antibody against FAK; read-out: IC50, disruption of FAK/IGF-1R binding
T1 construct: endogenous in cells; host or cells: C8161 (A2) and A375 (A3) melanoma cells
T1 sequence (Q05397 2-1052 limits assumed): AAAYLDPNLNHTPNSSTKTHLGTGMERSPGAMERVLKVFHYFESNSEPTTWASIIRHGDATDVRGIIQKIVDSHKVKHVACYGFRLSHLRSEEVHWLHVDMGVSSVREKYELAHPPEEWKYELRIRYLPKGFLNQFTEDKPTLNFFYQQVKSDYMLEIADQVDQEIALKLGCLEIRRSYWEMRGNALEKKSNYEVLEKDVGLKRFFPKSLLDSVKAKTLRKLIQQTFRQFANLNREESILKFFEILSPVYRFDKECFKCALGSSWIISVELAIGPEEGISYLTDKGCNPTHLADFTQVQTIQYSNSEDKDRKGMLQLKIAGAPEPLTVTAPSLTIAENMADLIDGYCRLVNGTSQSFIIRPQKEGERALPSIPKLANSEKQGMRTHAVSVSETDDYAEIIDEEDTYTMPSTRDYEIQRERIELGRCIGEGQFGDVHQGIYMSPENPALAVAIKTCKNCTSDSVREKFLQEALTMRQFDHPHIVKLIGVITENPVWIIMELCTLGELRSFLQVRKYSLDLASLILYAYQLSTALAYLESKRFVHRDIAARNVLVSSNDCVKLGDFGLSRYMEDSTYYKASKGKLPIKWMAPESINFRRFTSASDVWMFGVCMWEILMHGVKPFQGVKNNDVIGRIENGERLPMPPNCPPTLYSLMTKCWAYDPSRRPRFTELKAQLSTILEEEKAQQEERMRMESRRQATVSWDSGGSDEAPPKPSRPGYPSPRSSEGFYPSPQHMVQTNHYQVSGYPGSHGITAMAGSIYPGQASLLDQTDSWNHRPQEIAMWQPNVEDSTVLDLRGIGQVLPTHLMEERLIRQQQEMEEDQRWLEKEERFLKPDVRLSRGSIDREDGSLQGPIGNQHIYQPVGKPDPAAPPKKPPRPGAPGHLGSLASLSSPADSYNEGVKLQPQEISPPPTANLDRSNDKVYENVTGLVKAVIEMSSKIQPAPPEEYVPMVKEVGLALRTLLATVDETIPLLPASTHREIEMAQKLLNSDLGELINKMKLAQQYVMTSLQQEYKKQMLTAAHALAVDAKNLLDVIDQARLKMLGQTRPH
From the text: Computational Docking The crystal structures of the N-terminal domain of FAK (PDB code 2AL6) (22) and the kinase domain of IGF-1R(PDB 1P40A) (23) were utilized for in silico molecular modeling of their interaction as previously described. The three-dimensional coordinates of compound NSC344553 (INT2-31), obtained from the database of the National Cancer Institute, Developmental Therapeutics Program (NCI/DTP), were docked onto the predicted interface of the amino-terminus of FAK (amino acids 127-243) with the intracytoplasmic portion of IGF-1R (21). […] 100 orientations were created for NSC344553 in the target site and were scored using the computer program grid-based scoring function. […] The intermolecular energies for all configurations of NSC 344553 in binding to FAK-NT2 were calculated as the sum of electrostatic and van der Waals energies. These energy terms were evaluated as correlation functions, which were computed efficiently with Fast Fourier Transforms. […] Bound proteins were boiled in 6× Laemmli buffer and analyzed by SDS-PAGE and Western blotting. […] The intensity of the bands in the western blots was measured with scion image analysis software program. […]

SMILES: CSc1ncnc2c1ccn2C1O[C@H](COP(=O)(O)O)[C@@H](O)[C@H]1O (stereo partly drawn) [INT2-31, 4-(Methylthio)-7-(5-O-phosphono-D-ribofuranosyl)-{7H-Pyrrolo[2,3-d]pyrimidine}]
- cell proliferation (CSFE) (A375 melanoma cells): inhibited cell proliferation
- subcutaneous tumor growth compared to PBS control (A375 subcutaneous tumor): significant decrease
- IC50 (FAK and IGF-1R): 2720 nM
